# Measured values as given in patent US20190169134A1, “NOVEL CLASS OF QUINOLONE HETEROCYCLIC AROMATIC MOLECULES FOR CANCER TREATMENT” (RenoTarget Therapeutics, Inc., priority 2016, published 2019).
# System: HCC827 P cells
# Assay: Combination analysis of cell growth inhibition (SRB, CalcuSyn)
# Format: cell-based, human
# Experimental: As described in Example 2.1. Two cell lines, HCC827-P and HCC827-TR (Tarceva-resistant HCC727 cells-an EGFRi resistant cell line with MET amplification) (Wang, Pursell et al. 2013) were used in the combination study. Exponentially growing HC[…] and HCC827-TR cells were seeded into 96-wells dishes at density of 3,000 cells per well. Twenty-four hours later, the cells were exposed concurrently to serial dilution of Reno647 or Carboplatin or Camptothecin alone or in combination at a ratio of 1:50 with Carboplatin or at ratio 1:1 with Camptothecin for 3 days. Reno647 were concurrently and sequentially with paclitaxel (Taxol) at ratio of 200:1 for 6 days. For sequential exposure, the cells were treated with Reno647 for 3 days, after removal of the drug containing medium, the cells were treated with Taxol for additional 3 days, or the cells were treated by Taxol first followed by the treatment with Reno 647. After incubation for 6 days, the cell growth was measured by SRB as described previously in Example 2.1 section, and the percentages of inhibition (1-T/C) % were calculated, and data were analyzed by a PC program, CalcuSyn, Biosoft (edited by T.-C. Chou, Memorial Sloan-Kettering Cancer Center, New York, and M. P. Hayball, at Cambridge, UK, 1996). The computer-calculated combination index (CI) was used to judge the outcomes of a combination: […] It has long been accepted that chemotherapy provided some benefit for patients with non-small-cell lung cancer (NSCLC) in terms of quality of life and symptomatology as well as modest improvements in survival. […] Cell growth was determined by SRB as described above. […] Cell growth was determined by SRB as described above. […] (FIG. 5 C&D, CIs were well below 1 at effective concentration), particularly at higher concentration where Reno647 achieves its effective inhibition on […]. […] However, induction of EGFR activation mediated by Taxol may compromise activity of EGFR inhibitors. To examine our hypothesis, Taxol was combined with Reno647 in three different sequential exposures: • Combination 1: exposure of HC[…] or TR cells to Reno647+Taxol simultaneously for 6 days. • Combination 2: exposure of the cells to Reno647 first for 3 days followed by treatment with Taxol for an additional 3 days, or • Combination 3: exposure of the cells to Taxol first for 3 days followed by treatment with Reno647 for an additional 3 days. Exposure of the cells to either Reno647 or Taxol served as controls. After exposure, cell growth was determined by SRB and analyzed as described in above section.
# [1] = HCC827P, ratio 200:1, 3 days + 3 days
smiles,measurement,setting,value
"C#Cc1cccc(Nc2ncnc3cc(OCCOC)c(NC(=O)c4ccc(F)c([N+](=O)[O-])c4)cc23)c1 [Reno647, 4-Fluoro-N-[4-(3-ethynyl-phenylamino)-7-(2-methoxy-ethoxy)-quinazolin-6-yl]-3-nitro-benzamide]","combination index (CI), Reno647 with Camptothecin","HCC827 P, ratio 1:1, concurrent, 3 days, at effective concentration",below 1
same,"combination index (CI), Reno647 with Carboplatin","HCC827 P, ratio 1:50, concurrent, 6 days, at effective concentrations",below 1
same,"combination index (CI), Reno647 first followed by Taxol",[1],> 1
same,"combination index (CI), Taxol first followed by Reno647",[1],< 1
same,"combination index (CI), Reno647 and Taxol concurrently","HCC827P, ratio 200:1, 6 days",< 1
